What all share (assay type): cell-based
Assay [1] relates to P-388 (suspension culture of a lymphoid neoplasm from DBA/2 mouse). Put plainly: Antitumor screening, growth inhibition of P-388 cells. The settings on record: P388, 72 h, three days of incubation at 37°C, approximate IC₅₀ vs control wells, duplicate. The method, then: (§1) Cells were maintained in logarithmic phase of growth in Eagle's Minimum Essential Medium, with Earle's Balanced Salts, with 2.0 mM L-Glutamine, with non-essential Amino Acids, without Sodium Bicarbonate (EMEM/NEAA); supplemented with 10% Fetal Calf Serum (FCS), 10⁻² M Sodium Bicarbonate and 0,1 g/1 Penicillin-G + Streptomycin Sulfate.
(§2) A simple screening procedure was carried out to determine and compare the antitumor activity of these compounds, using an adapted form of the method described by Bergeron et al., Biochem. Biophys. Res. Comm. (1984) 121 848 [Reference 6]. The antitumor cell employed was P-388 (suspension culture of a lymphoid neoplasm from DBA/2 mouse), A-549 (monolayer culture of a human lung carcinoma), HT-29 (monolayer culture of a human colon carcinoma) and MEL-28 (monolayer culture of a human melanoma).
P-388 cell were seeded into 16 mm wells at 1 x 10⁴ cells per well in 1 ml aliquots of MEM 5FCS containing the indicated concentration of drug. A separate set of cultures without drug was seeded as control growth to ensure that cells remained in exponential phase of growth. All determinations were carried out in duplicate. After three days of incubation at 37°C, 10% CO₂ in a 98% humid atmosphere, an approximate IC₅₀ was determined by comparing the growth in wells with drug to the growth in control wells.

Assay [2] concerns A-549 (monolayer culture of a human lung carcinoma). Kind of assay: Antitumor screening, growth inhibition of A-549 cells (Crystal Violet staining). Particulars: A549, 72 h, three days of incubation at 37°C, approximate IC₅₀ vs control wells, duplicate. The method, then: as §1, §2
(§3) A-549, HT-29 and MEL-28 were seeded into 16 mm wells at 2 x 10⁴ cells per well in […] of MEM 10FCS containing the indicated concentration of drug. A separate set of cultures without drug was seeded as control growth to ensure that cells remained in exponential phase of growth. All determinations were carried out in duplicate. After three days of incubation at 37°C, 10% CO₂ in a 98% humid atmosphere, the wells were stained with 0.1% Crystal Violet. An approximate IC₅₀ was determined by comparing the growth in wells with drug to the growth in control wells.

The test system of assay [3] is HT-29 (monolayer culture of a human colon carcinoma). Kind of assay: Antitumor screening, growth inhibition of HT-29 cells (Crystal Violet staining). The settings on record: 72 h, three days of incubation at 37°C, approximate IC₅₀ vs control wells, duplicate. The method, then:
as §1, §2, §3

Assay [4] relates to MEL-28 (monolayer culture of a human melanoma). Kind of assay: Antitumor screening, growth inhibition of MEL-28 cells (Crystal Violet staining). Particulars: SK-MEL-28, 72 h, three days of incubation at 37°C, approximate IC₅₀ vs control wells, duplicate. The method, then: as §1, §2, §3

SMILES strings stand for the structures. In brackets after ≈: the same amount, converted by molar mass. Bounds are passed on as bounds.

In the case of `CC(=O)OC(CC(OC(C)=O)C(OC(C)=O)C(C)OC(C)=O)c1coc(Cc2cnco2)n1` (stereo not drawn) [Tetraacetoxyhexyl dioxazole (10), Tetraacetoxyhexyl dioxazole], the half-inhibitory concentration (IC50) – broadly, the concentration that inhibits the measured activity by half – amounted to 10 µg/mL (≈ 21.4 µM) in assay [1], 1 µg/mL (≈ 2.14 µM) in assay [2], 0.5 µg/mL (≈ 1.07 µM) in assay [3] and 10 µg/mL (≈ 21.4 µM) in assay [4].
Regarding `CCCCCCCCCCCCCCCCCCCCC(=O)OC(CC(OC(C)=O)C(OC(C)=O)C(C)OC(C)=O)c1coc(Cc2cnco2)n1` (stereo not drawn) [Digonazole triacetate (8), Digonazole triacetate], the IC50 in assay [1] was 0.2 µg/mL; in assay [2], 0.01 µg/mL; in assay [3] it was 0.02 µg/mL; in assay [4] it was 0.01 µg/mL.
For `CC(O)C(O)C(O)CC(O)c1coc(Cc2cnco2)n1` (stereo not drawn), the IC50 is over 20 µg/mL in assay [1], 5 µg/mL (≈ 16.8 µM) in assay [2], 5 µg/mL (≈ 16.8 µM) in assay [3] and 5 µg/mL (≈ 16.8 µM) in assay [4].
For the molecule `CCCCCCCCCCCCCCCCCCCCC(=O)OC(CC(O)C(O)C(C)O)c1coc(Cc2cnco2)n1` (stereo not drawn) [Digonazole (6), Digonazole], the IC50 in assay [1] was 2.5 µg/mL (≈ 4.12 µM); in assay [2], 0.2 µg/mL (≈ 0.33 µM); in assay [3], 0.2 µg/mL (≈ 0.33 µM).

The record behind these values is patent publication EP0687673A1, “Oxazole derivatives as antitumoral agents” (PHARMA MAR, S.A., priority 1994, dated 1995).
